Calls of active or inactive are those of the source.
Experiments:
[1] = target: T1, Calpain-2 catalytic subunit (Sus scrofa, UniProt P43367); assay: pig calpain II inhibitor potency, dose response, biochemical, fluorogenic peptide substrate (AID 1420); format: functional
T1 sequence (P43367 whole entry): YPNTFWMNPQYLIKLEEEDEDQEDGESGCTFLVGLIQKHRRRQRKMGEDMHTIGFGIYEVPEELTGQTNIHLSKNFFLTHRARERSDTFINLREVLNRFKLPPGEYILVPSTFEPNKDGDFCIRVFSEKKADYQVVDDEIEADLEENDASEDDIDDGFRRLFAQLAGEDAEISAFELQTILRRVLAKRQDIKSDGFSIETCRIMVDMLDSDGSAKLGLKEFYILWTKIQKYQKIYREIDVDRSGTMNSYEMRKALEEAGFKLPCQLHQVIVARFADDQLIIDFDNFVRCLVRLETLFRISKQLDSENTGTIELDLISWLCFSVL

INS1 = assay: beta cell apoptosis inhibitors, cytokine rescue, dose response, luminescence, retest (AID 449756); format: functional, cell-based; conditions: Rattus norvegicus;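 note: cell death triggered by IL-1 beta plus TNF-alpha plus IFN-gamma mixture; protective hits raise ATP signal compared with cytokine alone wells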
[2] = P. falciparum Dd2 growth inhibitors, dose response, SYBR Green, cherry-picked samples (AID 1159567); format: functional, cell-based
[3] = HEp-2 cell cytotoxicity, dose response, cytotoxicity control for RSV inhibitor project, HTS (AID 2410); format: functional; conditions: human respiratory syncytial virus
[4] = inhibitors of SNCA 5'UTR-driven reporter translation, confirmation, H4 neuroglioma cells, luminescence (AID 1988); format: functional, cell-based
[5] = Luminescence Cell-Based Dose Response HTS to Identify Inhibitors of 5'UTR Stem-Loop Driven Prion Protein mRNA Translation in H4 Neuroglioblastoma Cells. [Related pubchem assays: 1827 (Project Summary), 1813 (Primary HTS)]; format: functional
[6] = inhibitors of firefly luciferase expression or activity, dose response, H4 neuroglioma cells, luminescence (AID 1990); format: functional, cell-based
Fatty acid synthase [7] = target: T2, Fatty acid synthase (Homo sapiens, UniProt P49327); assay: FAS thioesterase domain inhibitors, dose response, biochemical, endpoint fluorescence intensity, uHTS hits (AID 624327); format: functional;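 note: fluorescence from hydrolysis of an O-methyl fluorescein acyl ester substrate by the enzyme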
T2 sequence (P49327 whole entry, the tested form may be a part): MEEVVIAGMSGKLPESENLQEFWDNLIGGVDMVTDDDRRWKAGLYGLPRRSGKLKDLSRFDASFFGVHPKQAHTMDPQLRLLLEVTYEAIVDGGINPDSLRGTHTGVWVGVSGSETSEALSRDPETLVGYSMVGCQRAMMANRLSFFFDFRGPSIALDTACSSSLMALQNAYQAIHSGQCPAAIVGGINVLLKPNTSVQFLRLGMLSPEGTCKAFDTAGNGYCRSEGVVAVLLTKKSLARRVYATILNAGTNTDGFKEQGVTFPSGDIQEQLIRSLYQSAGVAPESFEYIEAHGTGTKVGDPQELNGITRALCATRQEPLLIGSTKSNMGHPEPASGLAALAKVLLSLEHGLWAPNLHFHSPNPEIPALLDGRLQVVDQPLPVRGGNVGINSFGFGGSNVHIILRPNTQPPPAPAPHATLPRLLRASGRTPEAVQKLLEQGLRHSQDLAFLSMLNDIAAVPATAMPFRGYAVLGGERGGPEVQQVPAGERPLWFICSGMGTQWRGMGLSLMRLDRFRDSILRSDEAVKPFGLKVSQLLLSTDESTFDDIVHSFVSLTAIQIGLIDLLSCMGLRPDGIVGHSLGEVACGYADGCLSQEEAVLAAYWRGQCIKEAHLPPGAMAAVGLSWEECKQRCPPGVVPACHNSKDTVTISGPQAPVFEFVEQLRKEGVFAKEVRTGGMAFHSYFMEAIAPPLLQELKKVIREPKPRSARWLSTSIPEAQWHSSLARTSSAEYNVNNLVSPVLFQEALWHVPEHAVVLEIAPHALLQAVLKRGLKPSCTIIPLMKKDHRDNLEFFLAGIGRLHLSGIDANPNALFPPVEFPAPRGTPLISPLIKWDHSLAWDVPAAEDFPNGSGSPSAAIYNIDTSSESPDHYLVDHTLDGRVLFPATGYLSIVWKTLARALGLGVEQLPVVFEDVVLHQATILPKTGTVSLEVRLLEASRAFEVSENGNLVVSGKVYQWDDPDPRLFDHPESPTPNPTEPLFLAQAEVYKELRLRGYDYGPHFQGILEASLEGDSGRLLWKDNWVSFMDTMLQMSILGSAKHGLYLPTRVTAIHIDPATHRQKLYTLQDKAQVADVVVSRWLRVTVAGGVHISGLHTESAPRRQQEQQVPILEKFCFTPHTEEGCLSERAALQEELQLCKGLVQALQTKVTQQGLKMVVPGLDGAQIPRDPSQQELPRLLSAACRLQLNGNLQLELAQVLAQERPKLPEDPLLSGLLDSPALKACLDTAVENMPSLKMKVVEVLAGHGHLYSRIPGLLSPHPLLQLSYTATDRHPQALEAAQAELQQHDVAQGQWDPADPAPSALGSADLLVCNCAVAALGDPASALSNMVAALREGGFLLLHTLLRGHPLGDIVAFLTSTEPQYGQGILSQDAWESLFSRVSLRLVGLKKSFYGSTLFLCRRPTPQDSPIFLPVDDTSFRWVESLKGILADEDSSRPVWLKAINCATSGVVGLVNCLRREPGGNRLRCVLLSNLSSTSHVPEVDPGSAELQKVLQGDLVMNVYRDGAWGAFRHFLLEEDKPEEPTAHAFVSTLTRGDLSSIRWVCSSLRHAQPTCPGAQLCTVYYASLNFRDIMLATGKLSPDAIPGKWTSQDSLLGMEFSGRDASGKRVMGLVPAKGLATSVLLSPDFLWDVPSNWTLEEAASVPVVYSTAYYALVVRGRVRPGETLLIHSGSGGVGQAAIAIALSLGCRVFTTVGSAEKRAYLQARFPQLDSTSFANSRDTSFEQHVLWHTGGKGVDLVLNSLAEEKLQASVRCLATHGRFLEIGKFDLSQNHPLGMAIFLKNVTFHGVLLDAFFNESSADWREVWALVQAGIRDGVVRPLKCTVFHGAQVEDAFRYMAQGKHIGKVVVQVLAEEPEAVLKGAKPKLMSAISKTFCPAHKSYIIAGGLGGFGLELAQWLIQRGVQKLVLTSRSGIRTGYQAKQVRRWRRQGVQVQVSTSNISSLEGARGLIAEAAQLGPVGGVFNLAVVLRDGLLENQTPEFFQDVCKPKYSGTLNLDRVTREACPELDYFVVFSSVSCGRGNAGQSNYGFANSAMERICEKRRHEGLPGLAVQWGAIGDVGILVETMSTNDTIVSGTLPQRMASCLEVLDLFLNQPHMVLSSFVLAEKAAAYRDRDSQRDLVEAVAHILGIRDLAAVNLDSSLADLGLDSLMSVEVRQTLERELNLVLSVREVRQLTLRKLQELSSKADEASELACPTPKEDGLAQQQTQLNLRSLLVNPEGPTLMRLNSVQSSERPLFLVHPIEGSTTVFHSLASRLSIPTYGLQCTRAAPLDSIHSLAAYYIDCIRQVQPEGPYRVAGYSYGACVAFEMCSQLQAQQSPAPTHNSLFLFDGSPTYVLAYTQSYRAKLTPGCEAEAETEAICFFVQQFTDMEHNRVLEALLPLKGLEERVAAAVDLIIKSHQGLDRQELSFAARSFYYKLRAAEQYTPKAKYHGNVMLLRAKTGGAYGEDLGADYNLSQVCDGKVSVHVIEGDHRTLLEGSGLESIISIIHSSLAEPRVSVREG

Fatty acid synthase [8] = target: T2, Fatty acid synthase; assay: FAS thioesterase domain inhibitors, dose response, biochemical, kinetic fluorescence intensity (AID 624326); format: functional;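 note: rate of fluorescence rise from hydrolysis of a fluorogenic O-methyl fluorescein ester substrate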
[9] = HepG2 cell cytotoxicity, dose response, cytotoxicity control for Shn3 inhibitor project, CellTiter-Glo, cherry-picked (AID 624134); format: functional, cell-based
[10] = control 3'UTR Renilla luciferase suppression, dose response, counter-screen for Shn3 inhibitor project, cell-based, Clone20-Shn3RL, cherry-picked (AID 624133); format: functional
[11] = Shn3 3'UTR reporter inhibitors, dose response, cell-based, Clone20 osteoblasts, firefly luciferase, cherry-picked (AID 624132); format: functional;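 note: firefly luciferase luminescence from reporter carrying the Shn3 3'UTR in osteoblasts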
cells [12] = format: functional, cell-based
cells [13] = format: functional, cell-based; remark: listed apart in the source
Cytochrome P450 1A2 = target: T3, Cytochrome P450 1A2 (Homo sapiens, UniProt P05177);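 note: PubChem cytochrome P450 panel assay, CYP1A2 panel member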
T3 sequence (P05177 whole entry): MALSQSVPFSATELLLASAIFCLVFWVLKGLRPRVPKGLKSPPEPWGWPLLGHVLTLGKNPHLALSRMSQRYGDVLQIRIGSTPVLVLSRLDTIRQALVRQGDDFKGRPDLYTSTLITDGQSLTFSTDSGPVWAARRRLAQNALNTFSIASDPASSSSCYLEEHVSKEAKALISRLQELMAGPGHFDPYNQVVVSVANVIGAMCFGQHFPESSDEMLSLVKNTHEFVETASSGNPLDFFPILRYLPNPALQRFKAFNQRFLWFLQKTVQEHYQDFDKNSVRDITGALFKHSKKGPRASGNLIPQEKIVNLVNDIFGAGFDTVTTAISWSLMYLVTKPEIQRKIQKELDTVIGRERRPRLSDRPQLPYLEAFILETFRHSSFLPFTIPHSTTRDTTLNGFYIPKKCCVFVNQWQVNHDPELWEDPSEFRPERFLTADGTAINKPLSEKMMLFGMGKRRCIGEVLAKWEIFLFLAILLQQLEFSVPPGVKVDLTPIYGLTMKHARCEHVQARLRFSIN

Vero = assay: cells; format: functional; conditions: Chlorocebus sabaeus
Paired box protein Pax-8 = Paired box protein Pax-8 (Homo sapiens, UniProt Q06710); assay: inhibitors of PAX8-driven TPO luciferase reporter, dose response, RMG-I cells, cherry-pick (AID 687027); format: functional, cell-based;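 note: luciferase reporter driven by Pax8 target thyroperoxidase promoter measured by SteadyGlo luminescence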
Sequence of Paired box protein Pax-8 (Q06710 whole entry): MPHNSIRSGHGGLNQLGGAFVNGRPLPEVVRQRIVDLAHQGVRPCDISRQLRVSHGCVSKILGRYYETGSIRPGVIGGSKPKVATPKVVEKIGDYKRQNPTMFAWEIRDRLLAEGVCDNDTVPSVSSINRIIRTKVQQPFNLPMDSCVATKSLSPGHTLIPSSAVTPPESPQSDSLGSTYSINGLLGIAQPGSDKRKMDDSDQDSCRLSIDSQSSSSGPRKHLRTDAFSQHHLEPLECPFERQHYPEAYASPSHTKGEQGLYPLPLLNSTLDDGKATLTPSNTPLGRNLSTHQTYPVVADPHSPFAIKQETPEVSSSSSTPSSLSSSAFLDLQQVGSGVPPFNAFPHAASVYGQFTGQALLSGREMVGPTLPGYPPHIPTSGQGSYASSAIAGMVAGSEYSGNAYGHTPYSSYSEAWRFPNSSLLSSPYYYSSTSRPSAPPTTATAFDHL

H4 = assay: Luminescence Cell-Based Dose Response HTS to Identify Activators of 5'UTR Stem-Loop Driven Prion Protein mRNA Translation in H4 Neuroglioblastoma Cells. [Related pubchem assays: 1829 (Project Summary), 1814 (Primary HTS)]; format: functional; conditions: Homo sapiens
[14] = Luminescence Cell-Based Dose Response HTS to Identify Activators of Luciferase Translation or Activity in H4 […] Cells. [Related pubchem assays: 1829 (Project Summary), 1814 (Primary HTS)]; format: functional
[15] = cytotoxicity toward DRD oncogenic fibroblasts, dose response, cell-based, non-viral oncogenic, luminescence (AID 1934); format: functional; conditions: Homo sapiens
BJ [16] = assay: cytotoxicity toward BJ-TERT fibroblasts, dose response, cell-based, RAS-independent, luminescence (AID 1933); format: functional; conditions: Homo sapiens
BJ [17] = assay: cytotoxicity toward BJ-TERT-LT-ST fibroblasts, dose response, cell-based, RAS-independent, luminescence (AID 1935); format: functional; conditions: Homo sapiens;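 note: BJ fibroblasts immortalized with TERT plus LT and ST oncogenes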
BJ [18] = assay: cells; format: functional, cell-based; conditions: Homo sapiens

CC(C)Cn1c(N)c(C(=O)COC(=O)c2ccc(Cl)cc2)c(=O)n(C)c1=O
IC50 [1]: 2.21 µM (active)

Cc1ccc(-c2[nH]ncc2/C=N/n2c(COc3ccccc3C)nc3ccccc3c2=O)cc1
AC50 (INS1): 6.28 µM (active)
IC50 [1]: 28 µM (not active)

O=C(c1ccccn1)N1CC[C@H]2[C@H](CO)Nc3ccc(-c4ccccc4)cc3[C@H]21
AC50 [2]: 12.4 µM (active)

Cc1ccc(N(CCCCN2C(=O)c3ccccc3C2=O)C(=O)c2ccc(Cl)s2)cc1
CC50 [3]: 24.1 µM (active)
IC50 [1]: 2.83 µM (not active)

O=C(Nc1ccccc1Cl)N1CCN(c2ccc3nnc(-c4ccc(F)cc4)n3n2)CC1
EC50 [4]: > 120 µM (not active)
EC50 [5]: 15.2 µM (active)
EC50 [6]: 13.4 µM (active)

CC(C)N(C(=O)COC(=O)c1ccc(O)cc1)C(C)C
IC50 [1]: 18.7 µM (not active)

CN(C(=O)COC(=O)c1cc([N+](=O)[O-])ccc1Cl)c1ccccc1
IC50 (Fatty acid synthase [7]): 9.59 µM (active)
IC50 (Fatty acid synthase [8]): 7 µM (active)

COc1ccccc1NC(=O)COC(=O)C12CC3CC(CC(Cl)(C3)C1)C2
IC50 [1]: 13 µM (not active)

O=C(/C=C/c1cc([N+](=O)[O-])ccc1OC(F)F)NCc1ccc(F)cc1
IC50 (Fatty acid synthase [7]): 1.33 µM (active)
IC50 (Fatty acid synthase [8]): 0.999 µM (active)

Nc1nc(N)c2cc(CNc3ccc(Cl)c(Cl)c3)ccc2n1
AC50 [9]: 1.21 µM (active)
AC50 [10]: 3.34 µM (active)
AC50 [11]: 0.956 µM (active)

COc1ccc(CCNc2nncc(O)n2)cc1OC
EC50 (cells [12]): > 350 µM (not active)
EC50 (cells [13]): > 350 µM (not active)

O=C(CCNC(=O)c1ccc([N+](=O)[O-])cc1)NCCC1=CCCCC1
IC50 (Fatty acid synthase [7]): 3.75 µM (active)
IC50 (Fatty acid synthase [8]): 3.4 µM (active)

C[C@H]1CN([C@@H](C)CO)C(=O)c2ccccc2-c2ccccc2CO[C@H]1CN(C)Cc1cccc(C(F)(F)F)c1
AC50 [2]: 4.48 µM (active)

O=C(O)c1cccc(N2CCCC2=O)c1
EC50 (cells [12]): > 350 µM (not active)
EC50 (cells [13]): > 350 µM (not active)
AC50 (Cytochrome P450 1A2): 14.1 µM (inconclusive)

Cc1c(C(=O)N2CCOCC2)sc(NC(=O)CCl)c1C#N
CC50 (Vero): 22.3 µM (active)

Cc1ccccc1NC(=O)Cn1c(=O)n(Cc2ccccc2)c(=O)c2c(C)c(C)sc21
IC50 [1]: 15 µM (not active)

O=C(CN1C(=O)c2ccc([N+](=O)[O-])cc2C1=O)NCCC1=CCCCC1
IC50 (Fatty acid synthase [7]): 20.9 µM (inactive)
IC50 (Fatty acid synthase [8]): 15.4 µM (active)

C=C1CC(COc2ccc3c(C)c(Cl)c(=O)oc3c2)(c2ccccc2)OC1=O (stereo not drawn)
AC50 [9]: 13.2 µM (active)
AC50 [10]: 9.25 µM (active)
AC50 [11]: 4.82 µM (active)
IC50 (Fatty acid synthase [7]): 10.5 µM (active)
AC50 (Paired box protein Pax-8): 5.9 µM (active)
IC50 (Fatty acid synthase [8]): 12 µM (active)

CC(=O)c1ccc(NC(=O)C(C)OC(=O)/C=C/c2ccco2)cc1 (stereo not drawn)
AC50 [9]: > 70 µM (inactive)
AC50 [10]: 15.3 µM (active)
AC50 [11]: 9.12 µM (active)

O=C(Nc1cnc2sccn2c1=O)c1ccccc1Cl
EC50 (H4): > 120 µM (not active)
EC50 [14]: 0.199 µM (active)

CC(C)C[C@H](NC(=O)c1[nH]cnc1C(=O)NCCCCCNC(=O)OC(C)(C)C)C(=O)OC(C)(C)C
IC50 [1]: 26.6 µM (not active)

O=C(O)c1cccnc1SCc1ccccc1Cl
EC50 (cells [12]): > 350 µM (not active)
EC50 (cells [13]): > 350 µM (not active)

CCCn1c(SCC(=O)Nc2ccccc2OC)nnc1-c1ccco1
EC50 [15]: 21.1 µM (active)
EC50 (BJ [16]): 29.2 µM (active)
EC50 (BJ [17]): > 150 µM (inconclusive)
EC50 (BJ [18]): 50.9 µM (active)
